Assay results reported in publication PMC7417771, “Thiol-ene Enabled Chemical Synthesis of Truncated S-Lipidated Teixobactin Analogs” (Frontiers in Chemistry, 2020).
Converted amounts (≈) assume the structure as drawn. Read-outs that look alike come from different tables or passages of the source. Positions of bridges follow the written chain, without caps; N, C: chain ends. Non-standard residues stand in square brackets, D forms with d. Residues, ends and D or L forms follow the SMILES beside them. *: point of attachment. Ethyl(2-palmitoyloxy) = CCCCCCCCCCCCCCCC(=O)OCC*; Ethyl(2-butanoyloxy) = CCCC(=O)OCC*; Ethyl(2-OBz) = O=C(OCC*)c1ccccc1; Lauroyl = CCCCCCCCCCCC(=O)*; X1 = CCCCCCCCCCCC(=O)OCC*; X3 = CCCCCCCC(=O)OCC*; X2 = CCCCCC(=O)OCC*; Mpa = O=C(O)CCS

Columns and labels:
[1] = Analytical RP-HPLC retention time as measure of hydrophobicity; type: physicochemical; conditions: for RP-HPLC column retention time tR: chromatographic, analytical RP-HPLC, Waters Xterra MS C18 5 μm 4.6 × 150 mm, buffer A 0.1% TFA in H2O, buffer B 0.1% TFA in MeCN, used as measure of hydrophobicity; for Δt, retention time difference to lipobactin 3: tR of the compound minus tR of 3, same RP-HPLC C18 system; for Hydrophobicity relative to lipobactin 3 as judged by RP-HPLC retention time: in words
Procedure: We evaluated the antibiotic activity of the analogs 8a–8f against S. aureus using lipobactin 3 as a reference compound. Lipobactin 3 was prepared using Fmoc-SPPS as described by the Nowick group (Yang H. et al., [2016]) and purified to 95% (Yang H. et al., [2016]). […] To examine the reasons for the lack of bioactivity, the hydrophobicity of the S-lipidated teixobactin analogs as a function of lipid tail length were examined by analyses of their RP-HPLC retention times and compared to that of lipobactin 3 (Table 1).
(§1) Microwave irradiated reactions were performed in a CEM (Matthews, NC) Discover SP, Model 908010 reactor. Dibenzofulvene measurements for the Fmoc release assay was performed in a Shimadzu (Kyoto, Japan) UV-1280 spectrophotometer at 290 nm. Analytical RP-HPLC was used to analyse final compounds and performed on a Dionex (Sunnyvale, CA) UltiMate 3000 system using a Waters (Milford, MA) Xterra MS C18 (5 μm 4.6 × 150 mm) column, and Chromeleon software was used for data processing. Buffer A: 0.1% (v/v) TFA in H2O; buffer B: 0.1% (v/v) TFA in MeCN. LC-MS was performed on an Agilent (Santa Clara, CA) 1260 Infinity with UV absorbance at λ = 214 nm equipped with an Agilent 6120 Quadrupole LC-MS using an Agilent Zorbax 300SB-C3 column (3.5 μm, 3.0 × 150 mm) column with a linear gradient of 5 – 95% B (ca. 3% B/min) at r.t., with a flow rate of 0.3 mL/min. Data processing was carried out by Agilent OpenLAB software. Buffer A: 0.1% (v/v) formic acid in H2O; buffer B: 0.1% (v/v) formic acid in MeCN. Crude peptides were purified on Dionex UltiMate 3000 preparative HPLC using Agilent Zorbax 300SB-C18 column (5 μm, 9.4 × 250 mm) and Chromeleon software was used for data processing. Ultraviolet irradiation was carried out using Spectroline (Westbury, NY) hand-held lamp EA-160/FA, 6W integrally filtered tube at 50 Hz, 0.17 A and λ = 365 nm. Biological assays were carried out inside a Thermo Fisher (Waltham, MA) HERAsafe KSP 12 biological safety cabinet on 96-well plates obtained from MediRay (Auckland, New Zealand). Mueller Hinton (MH) broth and Staphylococcus aureus ATCC 29213 was obtained from Thermo Fisher. Media and bacteria were incubated in N-Biotek (Geyonggi, South Korea) NB205L shaker.

[2] = tested on: Staphylococcus aureus ATCC 29213; type: cell-based
Procedure: as §1
Staphylococcus aureus ATCC 29213 was grown in non-cation adjusted Mueller Hinton (MH) broth at 37 °C with shaking (200 rpm). […] Overnight cultures of bacteria were diluted in fresh MH before adding 50 µL of inoculum to each well of the MIC plate, to achieve a final volume of 100 µL with a uniform CFU/ml of ~5 x10^5 in each well. Plates were incubated at 37 °C with shaking for 24 h before determining the MIC.

[3] = tested on: Gram-positive bacterial species; conditions: range over species, ref Yang H. et al., 2016, cited from earlier work
Procedure: Despite this substitution, the L-Arg^10-teixobactin analog maintained excellent, albeit reduced potency, with MIC values ranging 1–4 μg/mL across a number of Gram-positive bacterial species (Yang H. et al., [2016]; Zong et al., [2018]). The rationale for this substitution being that the positive charge from the guanidinium group was the moiety responsible for eliciting antibacterial activity.

[4] = tested on: S. epidermidis ATCC 14990; conditions: cited from earlier work; for MIC (S. epidermidis): Figure 1, ref Yang H. et al. (2016), Girt et al. (2018), Zong et al. (2018)
Procedure: Figure 1 Structures of teixobactin 1 and teixobactin analogs; Arg^10-teixobactin 2, lipobactin 3, and Lys^10-farnesylbactin 4. Examples of most relevant MICs from the literature are shown above each structure. Yang H. et al. ([2016]), Girt et al. ([2018]), Zong et al. ([2018]) The End^10, Arg^10 and Lys^10 substitutions (red) and the lipid moieties of lipobactin 3 and farnesylbactin 4 (blue) are highlighted. […] Lipobactin 3 was prepared using Fmoc-SPPS as described by the Nowick group (Yang H. et al., [2016]) and purified to 95% (Yang H. et al., [2016]). […] Despite the distinct similarity to lipobactin 3, in which hydrophobic residues 1–5 of teixobactin are also replaced with ...

[5] = tested on: methicillin-resistant Staphylococcus aureus (MRSA); conditions: cited from earlier work
From the text: Nature has historically been the primary source of medicinally important antibiotics (Moloney, [2016]). By screening soil microorganisms, Ling et al. discovered the novel antimicrobial peptide (AMP) teixobactin (1, Figure 1), isolated from bacterium Eleftheria terrae (Ling et al., [2015]). […] Crucially, resistance in S. aureus was not induced by exposure to sub-lethal doses of teixobactin. The lack of resistance wa ... || Figure 1 Structures of teixobactin 1 and teixobactin analogs; Arg^10-teixobactin 2, lipobactin 3, and Lys^10-farnesylbactin 4. Examples of most relevant MICs from the literature are shown above each structure. Yang H. et al. ([2016]), Girt et al. ([2018]), Zong et al. ([2018]) The End^10, Arg^10 and Lys^10 substitutions (red) and the lipid moieties of lipobactin 3 and farnesylbactin 4 (blue) are highlighted.

[6] = Figure 1, ref Yang H. et al. (2016), Girt et al. (2018), Zong et al. (2018)

CCCCCCCCCCCC(=O)N[C@H](C(=O)N[C@@H](CO)C(=O)N[C@H]1C(=O)N[C@@H](C)C(=O)N[C@@H](CCCNC(=N)N)C(=O)N[C@@H]([C@@H](C)CC)C(=O)O[C@H]1C)[C@@H](C)CC [Compound 3, lipobactin, reference compound] (Lauroyl-IS[dT]ARI; ester 3-C)
RP-HPLC column retention time tR [1]: 20.38 min | Δt, retention time difference to lipobactin 3 [1]: 0 min | MIC, S. aureus ATCC 29213 ([2]; ATCC 29213, 24 h): 8 µM (≈ 6.59 µg/mL) | MIC, S. aureus ATCC 29213, converted to mass concentration ([2]; ATCC 29213, 24 h): ca. 6.5 μg/mL | MIC across a range of Gram-positive bacterial species [3]: 4 to 8 µg/mL | MIC (S. epidermidis) [4]: 4 µg/mL (≈ 4.85 µM) | MIC against S. epidermidis ATCC 14990 ([4]; reported MIC, ref Yang H. et al., 2016): 4 µg/mL (≈ 4.85 µM)

CCCC(=O)OCCSCCC(=O)N[C@H](C(=O)N[C@@H](CO)C(=O)N[C@H]1C(=O)N[C@@H](C)C(=O)N[C@@H](CCCNC(=N)N)C(=O)N[C@@H]([C@@H](C)CC)C(=O)O[C@H]1C)[C@@H](C)CC [Compound 8a] ([Mpa](Ethyl(2-butanoyloxy))IS[dT]ARI; ester 4-C)
RP-HPLC column retention time tR [1]: 14.98 min | Hydrophobicity relative to lipobactin 3 as judged by RP-HPLC retention time [1]: more hydrophilic than 3 | Δt, retention time difference to lipobactin 3 [1]: -5.4 min | MIC, S. aureus ATCC 29213 ([2]; ATCC 29213, 24 h): > 128 µM

CCCCCC(=O)OCCSCCC(=O)N[C@H](C(=O)N[C@@H](CO)C(=O)N[C@H]1C(=O)N[C@@H](C)C(=O)N[C@@H](CCCNC(=N)N)C(=O)N[C@@H]([C@@H](C)CC)C(=O)O[C@H]1C)[C@@H](C)CC [Compound 8b] ([Mpa](X2)IS[dT]ARI; ester 4-C)
RP-HPLC column retention time tR [1]: 16.88 min | Hydrophobicity relative to lipobactin 3 as judged by RP-HPLC retention time [1]: more hydrophilic than 3 | Δt, retention time difference to lipobactin 3 [1]: -3.5 min | MIC, S. aureus ATCC 29213 ([2]; ATCC 29213, 24 h): > 128 µM

CCCCCCCC(=O)OCCSCCC(=O)N[C@H](C(=O)N[C@@H](CO)C(=O)N[C@H]1C(=O)N[C@@H](C)C(=O)N[C@@H](CCCNC(=N)N)C(=O)N[C@@H]([C@@H](C)CC)C(=O)O[C@H]1C)[C@@H](C)CC [Compound 8c] ([Mpa](X3)IS[dT]ARI; ester 4-C)
RP-HPLC column retention time tR [1]: 18.89 min | Δt, retention time difference to lipobactin 3 [1]: -1.5 min | MIC, S. aureus ATCC 29213 ([2]; ATCC 29213, 24 h): > 128 µM

CCCCCCCCCCCC(=O)OCCSCCC(=O)N[C@H](C(=O)N[C@@H](CO)C(=O)N[C@H]1C(=O)N[C@@H](C)C(=O)N[C@@H](CCCNC(=N)N)C(=O)N[C@@H]([C@@H](C)CC)C(=O)O[C@H]1C)[C@@H](C)CC [Compound 8d] ([Mpa](X1)IS[dT]ARI; ester 4-C)
RP-HPLC column retention time tR [1]: 23.21 min | Hydrophobicity relative to lipobactin 3 as judged by RP-HPLC retention time [1]: more hydrophobic than 3 | Δt, retention time difference to lipobactin 3 [1]: +2.8 min | MIC, S. aureus ATCC 29213 ([2]; ATCC 29213, 24 h): > 128 µM

CCCCCCCCCCCCCCCC(=O)OCCSCCC(=O)N[C@H](C(=O)N[C@@H](CO)C(=O)N[C@H]1C(=O)N[C@@H](C)C(=O)N[C@@H](CCCNC(=N)N)C(=O)N[C@@H]([C@@H](C)CC)C(=O)O[C@H]1C)[C@@H](C)CC [Compound 8e] ([Mpa](Ethyl(2-palmitoyloxy))IS[dT]ARI; ester 4-C)
RP-HPLC column retention time tR [1]: 27.98 min | Hydrophobicity relative to lipobactin 3 as judged by RP-HPLC retention time [1]: more hydrophobic than 3 | Δt, retention time difference to lipobactin 3 [1]: +7.6 min | MIC, S. aureus ATCC 29213 ([2]; ATCC 29213, 24 h): > 128 µM

CC[C@H](C)[C@H](NC(=O)CCSCCOC(=O)c1ccccc1)C(=O)N[C@@H](CO)C(=O)N[C@H]1C(=O)N[C@@H](C)C(=O)N[C@@H](CCCNC(=N)N)C(=O)N[C@@H]([C@@H](C)CC)C(=O)O[C@H]1C [Compound 8f] ([Mpa](Ethyl(2-OBz))IS[dT]ARI; ester 4-C)
RP-HPLC column retention time tR [1]: 15.93 min | Δt, retention time difference to lipobactin 3 [1]: -4.5 min | MIC, S. aureus ATCC 29213 ([2]; non-cation adjusted Mueller Hinton broth, two-fold dilution 128 to 0.0625 µM, ~5 x10^5 CFU/ml, 37 °C with shaking, 24 h, lowest concentration at which growth did not occur): > 128 µM

L-Arg^10-teixobactin [Compound 2]
MIC values across a number of Gram-positive bacterial species ([3]; Zong et al., 2018): 1 to 4 µg/mL | MIC across a range of Gram-positive bacterial species [3]: 1 to 4 µg/mL | MIC (MRSA) [5, 6]: 2 µg/mL | MIC (S. epidermidis) [4]: 1 µg/mL

teixobactin [Compound 1]
MIC (MRSA) [5, 6]: 0.25 µg/mL | MIC (MRSA) ([5]; ref Ling et al., 2015): 0.25 µg/mL
